According to the CheMixHub ionic liquid set:

Assay: xn = mol fraction of the nth substance listed

CCCC[n+]1cccc(C)c1.N#C[N-]C#N + O
298.15 K, 101 kPa
Details	electrical conductivity [S/m]
x1 = 0.0001676	0.072
x1 = 0.0003333	0.132
x1 = 0.0004971	0.18
x1 = 0.0007203	0.265
x1 = 0.0009901	0.347
x1 = 0.001245	0.42
x1 = 0.001513	0.502
x1 = 0.001757	0.558
x1 = 0.002014	0.629
x1 = 0.002115	0.655
x1 = 0.002344	0.698
x1 = 0.002438	0.725
x1 = 0.002706	0.785
x1 = 0.002941	0.824
x1 = 0.00295	0.83
x1 = 0.00329	0.889
x1 = 0.003543	0.944

CCCCCCCC[N+](CCCCCCCC)(CCCCCCCC)CCCCCCCC.[Br-] + CCCCCCCCCC(=O)O
Details	electrical conductivity [S/m]	viscosity [mPa·s]
293 K, 100 kPa, x1 = 0.3333	–	910
298 K, 100 kPa, x1 = 0.3333	–	650
298.1 K, 100 kPa, x1 = 0.333	4.5e-06	–
303 K, 100 kPa, x1 = 0.3333	–	470
303.15 K, 101 kPa, x2 = 0.6667	–	469
313 K, 100 kPa, x1 = 0.3333	–	260
318.15 K, 100 kPa, x1 = 0.333	–	208
323.15 K, 101 kPa, x2 = 0.6667	–	174
333 K, 100 kPa, x1 = 0.3333	–	98
353.15 K, 101 kPa, x2 = 0.6667	–	56

CO/N=C(\C(=O)N[C@@H]1C(=O)N2C(C(=O)[O-])=C(CSc3nc(=O)c(=O)[n-]n3C)CS[C@H]12)c1csc(N)n1.[Na+].[Na+] + CCCCCCCC[n+]1ccc(C)cc1.[Br-] + O
viscosity [mPa·s], 100 kPa
Details	x1 = 0.0003495, x2 = 0	x1 = 0.0008732, x2 = 0	x1 = 0.001391, x2 = 0	x1 = 0.002502, x2 = 0	x1 = 0.00312, x2 = 0	x1 = 0.003888, x2 = 0	x1 = 0.004767, x2 = 0	x1 = 0.005484, x2 = 0
288.15 K	1.196	1.273	1.365	1.604	1.745	1.964	2.205	2.45
293.15 K	1.053	1.12	1.2	1.399	1.527	1.701	1.918	2.122
298.15 K	0.935	0.994	1.062	1.231	1.348	1.495	1.674	1.858
303.15 K	0.829	0.885	0.945	1.1	1.195	1.323	1.48	1.638
308.15 K	0.744	0.794	0.849	0.982	1.07	1.184	1.322	1.455

CO + CCCC[n+]1ccc(C)cc1.F[B-](F)(F)F
Details	viscosity [mPa·s]
298.15 K, 101 kPa, x1 = 1	0.538

ClCCl + CCCC[n+]1ccn(C)c1.F[B-](F)(F)F
298.15 K
Details	electrical conductivity, 101 kPa [S/m]	viscosity, 101 kPa [mPa·s]	viscosity, 101.33 kPa [mPa·s]
x1 = 0.1	0.265	85	–
x1 = 0.1923	0.348	63.1	–
x1 = 0.2841	0.45	46.1	–
x1 = 0.3884	0.592	31.2	–
x1 = 0.4507	–	–	14.3
x1 = 0.4878	0.772	20	–
x1 = 0.5882	0.99	12.3	–
x1 = 0.6897	1.18	6.73	–
x1 = 0.756	1.26	4	–
x1 = 0.8395	1.18	1.96	–

OC[C@@H](O)[C@@H](O)[C@H](O)[C@@H](O)CO + CC(=O)[O-].CC[n+]1ccn(C)c1
303.15 K, 100 kPa
Details	viscosity [mPa·s]
x1 = 0.1894	283
x1 = 0.5836	2256

C[N+](C)(C)Cc1ccccc1.[Cl-] + OCC(O)CO
Details	electrical conductivity, 298 K [S/m]	viscosity, 288.15 K [mPa·s]	viscosity, 308 K [mPa·s]
100 kPa, x1 = 0.25	–	1875	–
101.13 kPa, x1 = 0.5	0.069	–	80

CC[n+]1ccn(C)c1.COP(=O)([O-])OC + O
101 kPa
Details	viscosity [mPa·s]
293.15 K, x2 = 0.198	292
298.15 K, x2 = 0.198	212
303.15 K, x2 = 0.198	157.4
318.15 K, x2 = 0.198	73.7
318.15 K, x2 = 0.399	52.73
318.15 K, x2 = 0.799	11.57
328.15 K, x2 = 0.399	35.56
333.15 K, x2 = 0.198	40.33

CC(=O)Nc1ccc(O)cc1 + O + CCCC[n+]1ccn(C)c1.[Cl-]
101 kPa, frequency 0.0003 MHz
Details	electrical conductivity [S/m]
293.15 K, x1 = 0.0005511, x3 = 5.07e-06	0.0028
293.15 K, x1 = 0.0005511, x3 = 8.5e-06	0.0044
293.15 K, x1 = 0.0005511, x3 = 1.194e-05	0.0061
293.15 K, x1 = 0.0005511, x3 = 1.61e-05	0.0081
293.15 K, x1 = 0.0005511, x3 = 1.954e-05	0.0096
293.15 K, x1 = 0.001084, x3 = 4.54e-06	0.0025
293.15 K, x1 = 0.001084, x3 = 7.63e-06	0.0038
293.15 K, x1 = 0.001084, x3 = 1.144e-05	0.0055
293.15 K, x1 = 0.001084, x3 = 1.471e-05	0.0067
293.15 K, x1 = 0.001084, x3 = 1.907e-05	0.0086
298.15 K, x1 = 0.0005511, x3 = 2.53e-06	0.0016
298.15 K, x1 = 0.0005511, x3 = 4.16e-06	0.0025
298.15 K, x1 = 0.0005511, x3 = 6.69e-06	0.0039
298.15 K, x1 = 0.0005511, x3 = 8.87e-06	0.005
298.15 K, x1 = 0.0005511, x3 = 1.122e-05	0.0062
298.15 K, x1 = 0.0005511, x3 = 1.285e-05	0.007
298.15 K, x1 = 0.0005511, x3 = 1.701e-05	0.009
298.15 K, x1 = 0.001084, x3 = 4.54e-06	0.0028
298.15 K, x1 = 0.001084, x3 = 8.36e-06	0.0046
298.15 K, x1 = 0.001084, x3 = 1.235e-05	0.0065
298.15 K, x1 = 0.001084, x3 = 1.962e-05	0.0099
303.15 K, x1 = 0.0005511, x3 = 3.44e-06	0.0022
303.15 K, x1 = 0.0005511, x3 = 5.79e-06	0.0035
303.15 K, x1 = 0.0005511, x3 = 9.23e-06	0.0054
303.15 K, x1 = 0.0005511, x3 = 1.737e-05	0.0097
303.15 K, x1 = 0.001084, x3 = 2.72e-06	0.0018
303.15 K, x1 = 0.001084, x3 = 1.217e-05	0.0067
303.15 K, x1 = 0.001084, x3 = 1.726e-05	0.0092
308.15 K, x1 = 0.0005511, x3 = 3.98e-06	0.0028
308.15 K, x1 = 0.0005511, x3 = 7.6e-06	0.0049
308.15 K, x1 = 0.0005511, x3 = 1.031e-05	0.0065
308.15 K, x1 = 0.001084, x3 = 4.18e-06	0.0028
308.15 K, x1 = 0.001084, x3 = 8.36e-06	0.005
308.15 K, x1 = 0.001084, x3 = 1.235e-05	0.0072
308.15 K, x1 = 0.001084, x3 = 1.689e-05	0.0097
